Data from ChEMBL document CHEMBL3044987, “7-chloro-3-(substituted benzylidene/phenyl ethylidene amino)-2-phenylquinazolin-4(3H)-ones: synthesis, antimicrobial and antitubercular evaluation” (2012).

Columns and labels:
Format in all cases: functional
[1] = test system: Escherichia coli; assay: Antibacterial activity against Escherichia coli ATCC 25922 after 24 hr by disk diffusion method
[2] = test system: Pseudomonas aeruginosa; assay: Antibacterial activity against Pseudomonas aeruginosa ATCC 27853 after 24 hr by disk diffusion method
[3] = test system: Staphylococcus aureus; assay: Antibacterial activity against Staphylococcus aureus ATCC 6538 after 24 hr by disk diffusion method

Structure (SMILES): C/C(=N\n1c(-c2ccccc2)nc2cc(Cl)ccc2c1=O)c1ccc(O)cc1
- inhibition zone (IZ) [1]: 22 mm
- inhibition zone (IZ) [2]: 4 mm
- inhibition zone (IZ) [3]: 15 mm

Structure (SMILES): COc1cc(/C=N/n2c(-c3ccccc3)nc3cc(Cl)ccc3c2=O)ccc1O
- inhibition zone (IZ) [1]: 21 mm
- inhibition zone (IZ) [2]: 5 mm
- inhibition zone (IZ) [3]: 15 mm

Structure (SMILES): C/C(=N\n1c(-c2ccccc2)nc2cc(Cl)ccc2c1=O)c1ccc(Cl)cc1
- inhibition zone (IZ) [1]: 22 mm
- inhibition zone (IZ) [2]: 4 mm
- inhibition zone (IZ) [3]: 15 mm

Structure (SMILES): O=C(O)c1cn(C2CC2)c2cc(N3CCNCC3)c(F)cc2c1=O [CIPROFLOXACIN]
- inhibition zone (IZ) [2]: 18 mm
- inhibition zone (IZ) [3]: 17 mm
